Test: Odour description on paper blotter
Conditions: 1% solution in EtOH on paper blotter, 24 h

Row | Compound | Odour description
1 | C=CCC(CCCCCC)Oc1ccc(C=O)cc1OCC (stereo not shown) [Example 22, 4-(dec-1-en-4-yloxy)-3-ethoxybenzaldehyde] | dry powdery (cedarwood, vanilla)
2 | C=CCC(CCCCCC)Oc1ccc(CCC(C)=O)cc1 (stereo not shown) [Example 23, 4-(4-(dec-1-en-4-yloxy)phenyl)butan-2-one] | fruity (raspberry, gourmand) sugary
3 | C=CCC(CCCCCC)Oc1cc(C)c(C(=O)OC)c(O)c1C (stereo not shown) [Example 24, methyl 4-(dec-1-en-4-yloxy)-2-hydroxy-3,6-dimethylbenzoate] | powdery (mossy, evernyl)
4 | C=CCC(CCCCCCCCCC)Oc1ccccc1C(=O)OC (stereo not shown) [Example 25, methyl 2-(tetradec-1-en-4-yloxy)benzoate] | aldehydic, metallic, green, citrus
5 | C=CCC(CCCCCCCCCC)Oc1ccccc1C(=O)CC (stereo not shown) [Example 26, 1-(2-(tetradec-1-en-4-yloxy)phenyl)propan-1-one] | aldehydic, metallic, green, citrus
6 | C=CCC(CCCCCCCCCC)Oc1ccc(C=O)cc1OCC (stereo not shown) [Example 27, 3-ethoxy-4-(tetradec-1-en-4-yloxy)benzaldehyde] | powdery, vanilla, aldehydic, metallic, green, citrus, mandarin
7 | CC/C=C\C/C=C\CCOc1ccc(CCC(C)=O)cc1 [Example 31, 4-(4-(((3Z,6Z)-nona-3,6-dien-1-yl)oxy)phenyl)butan-2-one] | green, leaf aldehyde, green apple, fruity
8 | CC/C=C\C/C=C\CCOc1ccccc1OC [Example 32, 1-methoxy-2-(((3Z,6Z)-nona-3,6-dien-1-yl)oxy)benzene] | green, leaf aldehyde
9 | CC/C=C\C/C=C\CCOc1ccc2ccccc2c1 [Example 33, 2-(((3Z,6Z)-nona-3,6-dien-1-yl)oxy)naphthalene] | weak, green, leaf aldehyde
10 | CC/C=C\C/C=C\CCOc1ccc(C=O)cc1OC [Example 34, 3-methoxy-4-(((3Z,6Z)-nona-3,6-dien-1-yl)oxy)benzaldehyde] | green, leaf aldehyde, powdery, vanilla
11 | C=CCC(CCCCCCCCC)Oc1ccc(C=O)cc1OC (stereo not shown) [Example 35, 3-methoxy-4-(tridec-1-en-4-yloxy)benzaldehyde] | powdery, vanilla, aldehydic, green, metallic, mandarin
12 | C=CCC(CCCCCCCCC)Oc1ccc(COC)cc1OCC (stereo not shown) [Example 37, 2-ethoxy-4-(methoxymethyl)-1-(tridec-1-en-4-yloxy)benzene] | citrus, mandarin, green
13 | CCC=CCC(CCCCCCCCC)Oc1ccc(CCC(C)=O)cc1 (stereo not shown) [Example 39, 4-(4-(pentadec-3-en-6-yloxy)phenyl)butan-2-one] | raspberry, mandarin, citrus, aldehydic, fresh
14 | CCC=CCC(Oc1ccc(C=O)cc1OCC)C(=O)OCC (stereo not shown) [Example 40, ethyl 2-(2-ethoxy-4-formylphenoxy)hept-4-enoate] | powdery (vanilla)
15 | CC/C=C\CC(C/C=C\CC)Oc1ccc(C=O)cc1OCC [Example 41, 3-ethoxy-4-(((3Z,8Z)-undeca-3,8-dien-6-yl)oxy)benzaldehyde] | vanilla, powdery
16 | CC=CCC(CCCCCC)Oc1ccc(C=O)cc1OCC (stereo not shown) [Example 43, 3-ethoxy-4-(undec-2-en-5-yloxy)benzaldehyde] | powdery, creamy, vanilla
17 | CCC=CCC(CCCCCC)Oc1ccc(C=O)cc1OCC (stereo not shown) [Example 44, 4-(dodec-3-en-6-yloxy)-3-ethoxybenzaldehyde] | woody, cedarwood, vanilla
18 | CCCCCCC(C/C=C\CCCCCCCC(=O)OC)Oc1ccccc1OC (stereo not shown) [Example 45, methyl (Z)-12-(2-methoxyphenoxy)octadec-9-enoate] | phenolic, medicinal, guaiacol, vanilla absolute, peru balsam
19 | CCOc1cc(C=O)ccc1OCC/C=C(\C)c1ccccc1 [Example 48, (E)-3-ethoxy-4-((4-phenylpent-3-en-1-yl)oxy)benzaldehyde] | sweet, powdery, vanilla, ice cream

— US20240417359A1, “PRECURSORS OF PHENOLIC FRAGRANT COMPOUNDS” (GIVAUDAN SA, priority 2021, published 2024)
